# Experimental data reported in article PMC12372887, “Mechanism and cellular actions of the potent AMPK inhibitor BAY-3827” (Science Advances, 2025).
# pIC50: −log10 of the molar value.
# Key:
# Aurora B = Aurora B (Homo sapiens, UniProt Q96GD4); assay: Kinase panel (140 human kinases); format: biochemical
# Method: (§1) BAY-3827 and BAY-974 were assayed against a 140-human kinase panel at 0.1 μM and at 1 μM (BAY-3827) concentration in a [γ-^33P] ATP–based radioactive filter binding assay ([31], [65]) setup in duplicates with reported mean remaining kinase percentage activity alongside SD (table S1). Assays were performed at either 5, 20, or 50 μM ATP to be at or below the Michaelis constant for ATP for each enzyme and conducted by the services offered by the International Centre for Kinase Profiling at MRC Protein Phosphorylation and Ubiquitylation Unit, University of Dundee (https://www.kinase-screen.mrc.ac.uk/services/premier-screen).
# CK1γ2 = CK1γ2 (Homo sapiens, UniProt P78368); assay: Kinase panel (140 human kinases); format: biochemical
# Method: as §1
# CK2 = CK2 (Homo sapiens, UniProt P68400); assay: Kinase panel (140 human kinases); format: biochemical
# Sequence of CK2 (P68400 whole entry): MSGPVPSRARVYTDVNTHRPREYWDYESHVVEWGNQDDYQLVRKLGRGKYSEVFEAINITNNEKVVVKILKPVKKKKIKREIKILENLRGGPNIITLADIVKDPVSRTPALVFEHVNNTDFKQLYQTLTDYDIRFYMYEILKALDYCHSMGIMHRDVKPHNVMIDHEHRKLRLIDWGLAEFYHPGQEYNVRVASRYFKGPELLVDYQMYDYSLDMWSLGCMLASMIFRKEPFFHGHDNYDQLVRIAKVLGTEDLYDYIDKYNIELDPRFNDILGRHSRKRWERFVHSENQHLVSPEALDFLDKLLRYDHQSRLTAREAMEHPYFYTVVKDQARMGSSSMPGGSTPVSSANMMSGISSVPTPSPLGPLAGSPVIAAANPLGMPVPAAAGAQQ
# Method: as §1
# DYRK1A = DYRK1A (Homo sapiens, UniProt Q13627); assay: Kinase panel (140 human kinases); format: biochemical
# Method: as §1
# ERK8 = ERK8 (Homo sapiens, UniProt Q8TD08); assay: Kinase panel (140 human kinases); format: biochemical
# Method: as §1
# HIPK3 = HIPK3 (Homo sapiens, UniProt Q9H422); assay: Kinase panel (140 human kinases); format: biochemical
# Method: as §1
# LKB1 = LKB1 (Homo sapiens, UniProt Q15831); assay: Kinase panel (140 human kinases); format: biochemical
# Method: as §1
# MARK4 = MARK4 (Homo sapiens, UniProt Q96L34); assay: Kinase panel (140 human kinases); format: biochemical
# Sequence of MARK4 (Q96L34 whole entry): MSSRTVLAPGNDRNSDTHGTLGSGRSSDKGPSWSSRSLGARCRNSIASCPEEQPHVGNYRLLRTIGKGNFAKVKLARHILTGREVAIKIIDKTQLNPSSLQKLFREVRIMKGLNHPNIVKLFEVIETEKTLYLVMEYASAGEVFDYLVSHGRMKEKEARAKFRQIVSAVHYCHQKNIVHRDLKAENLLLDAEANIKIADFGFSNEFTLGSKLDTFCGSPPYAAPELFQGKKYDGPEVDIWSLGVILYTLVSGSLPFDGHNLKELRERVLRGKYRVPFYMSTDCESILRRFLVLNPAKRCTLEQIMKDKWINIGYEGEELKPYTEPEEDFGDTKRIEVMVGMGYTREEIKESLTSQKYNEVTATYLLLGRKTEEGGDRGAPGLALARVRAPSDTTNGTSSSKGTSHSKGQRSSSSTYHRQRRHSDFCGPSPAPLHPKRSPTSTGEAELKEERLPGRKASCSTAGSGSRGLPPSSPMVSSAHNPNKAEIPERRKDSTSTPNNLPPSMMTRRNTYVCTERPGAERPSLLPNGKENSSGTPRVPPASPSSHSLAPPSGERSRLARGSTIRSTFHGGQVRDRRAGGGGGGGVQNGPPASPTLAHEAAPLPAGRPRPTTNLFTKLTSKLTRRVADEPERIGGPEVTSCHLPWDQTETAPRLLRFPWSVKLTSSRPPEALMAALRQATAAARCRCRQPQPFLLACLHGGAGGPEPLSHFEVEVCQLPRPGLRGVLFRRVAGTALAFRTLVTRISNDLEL
# Method: as §1
# MKK2 = MKK2 (Homo sapiens, UniProt P36507); assay: Kinase panel (140 human kinases); format: biochemical
# Sequence of MKK2 (P36507 whole entry): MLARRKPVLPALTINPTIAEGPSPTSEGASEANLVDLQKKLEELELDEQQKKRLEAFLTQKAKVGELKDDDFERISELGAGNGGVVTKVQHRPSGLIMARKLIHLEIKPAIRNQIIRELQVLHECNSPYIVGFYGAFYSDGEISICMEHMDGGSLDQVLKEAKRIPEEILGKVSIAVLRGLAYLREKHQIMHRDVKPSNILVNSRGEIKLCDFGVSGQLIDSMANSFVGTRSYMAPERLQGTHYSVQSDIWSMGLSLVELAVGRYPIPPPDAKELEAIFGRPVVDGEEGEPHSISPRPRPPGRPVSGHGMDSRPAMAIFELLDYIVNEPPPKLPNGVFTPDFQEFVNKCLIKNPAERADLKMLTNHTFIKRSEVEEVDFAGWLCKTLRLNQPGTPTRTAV
# Method: as §1
# MPSK1 = MPSK1 (Homo sapiens, UniProt O75716); assay: Kinase panel (140 human kinases); format: biochemical
# Sequence of MPSK1 (O75716 whole entry): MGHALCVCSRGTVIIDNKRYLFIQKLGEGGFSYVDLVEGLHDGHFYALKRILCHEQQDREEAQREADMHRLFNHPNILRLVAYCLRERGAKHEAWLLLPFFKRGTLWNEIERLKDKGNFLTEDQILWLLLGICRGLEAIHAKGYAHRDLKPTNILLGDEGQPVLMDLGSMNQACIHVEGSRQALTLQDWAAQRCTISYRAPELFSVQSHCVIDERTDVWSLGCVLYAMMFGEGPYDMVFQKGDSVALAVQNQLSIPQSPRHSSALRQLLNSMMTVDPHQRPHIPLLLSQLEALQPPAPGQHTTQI
# Method: as §1
# NUAK1 = target: T1, NUAK1 (Homo sapiens, UniProt O60285); assay: Kinase panel (140 human kinases); format: biochemical
# T1 sequence (O60285 1-661): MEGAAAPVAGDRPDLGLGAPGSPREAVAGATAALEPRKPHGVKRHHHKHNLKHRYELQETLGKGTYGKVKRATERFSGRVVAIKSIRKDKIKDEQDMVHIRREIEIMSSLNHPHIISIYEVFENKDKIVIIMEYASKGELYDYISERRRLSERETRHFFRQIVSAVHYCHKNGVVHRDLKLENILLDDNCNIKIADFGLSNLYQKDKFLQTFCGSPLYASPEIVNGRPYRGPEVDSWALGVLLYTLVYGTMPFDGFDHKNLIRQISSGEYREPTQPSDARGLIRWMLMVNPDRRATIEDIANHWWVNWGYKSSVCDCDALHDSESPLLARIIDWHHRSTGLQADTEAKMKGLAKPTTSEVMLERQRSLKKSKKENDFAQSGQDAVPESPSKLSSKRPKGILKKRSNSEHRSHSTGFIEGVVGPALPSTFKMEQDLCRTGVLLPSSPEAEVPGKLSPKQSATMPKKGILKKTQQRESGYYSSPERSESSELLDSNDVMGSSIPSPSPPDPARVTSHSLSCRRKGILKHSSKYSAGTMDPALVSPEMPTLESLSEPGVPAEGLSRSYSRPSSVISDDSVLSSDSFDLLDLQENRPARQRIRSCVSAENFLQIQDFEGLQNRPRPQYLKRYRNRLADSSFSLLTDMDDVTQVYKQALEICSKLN
# Method: as §1
# PDK1 = PDK1 (Homo sapiens, UniProt O15530); assay: Kinase panel (140 human kinases); format: biochemical
# Method: as §1
# PHK = assay: Kinase panel (140 human kinases); format: biochemical; conditions: 0.1 μM
# Method: as §1
# PINK = PINK (Tribolium castaneum, UniProt D6WMX4); assay: Kinase panel (140 human kinases); format: biochemical
# Sequence of PINK (D6WMX4 whole entry): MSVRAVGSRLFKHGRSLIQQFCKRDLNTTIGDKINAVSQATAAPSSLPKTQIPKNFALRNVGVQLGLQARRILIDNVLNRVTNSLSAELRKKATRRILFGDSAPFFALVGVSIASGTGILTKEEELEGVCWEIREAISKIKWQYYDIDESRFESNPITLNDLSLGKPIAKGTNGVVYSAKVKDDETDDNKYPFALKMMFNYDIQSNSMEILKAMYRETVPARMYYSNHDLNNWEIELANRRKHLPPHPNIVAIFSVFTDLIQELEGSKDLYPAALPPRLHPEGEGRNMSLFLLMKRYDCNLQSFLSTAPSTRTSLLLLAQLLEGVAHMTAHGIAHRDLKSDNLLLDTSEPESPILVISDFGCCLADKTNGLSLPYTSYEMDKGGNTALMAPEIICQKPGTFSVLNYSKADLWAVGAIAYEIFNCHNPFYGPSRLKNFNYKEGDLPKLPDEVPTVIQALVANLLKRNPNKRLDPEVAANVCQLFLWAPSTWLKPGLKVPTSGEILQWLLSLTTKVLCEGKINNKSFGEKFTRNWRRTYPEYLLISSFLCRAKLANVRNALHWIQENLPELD
# Method: as §1
# PKBb = PKBb (Homo sapiens, UniProt P31751); assay: Kinase panel (140 human kinases); format: biochemical
# Sequence of PKBb (P31751 whole entry): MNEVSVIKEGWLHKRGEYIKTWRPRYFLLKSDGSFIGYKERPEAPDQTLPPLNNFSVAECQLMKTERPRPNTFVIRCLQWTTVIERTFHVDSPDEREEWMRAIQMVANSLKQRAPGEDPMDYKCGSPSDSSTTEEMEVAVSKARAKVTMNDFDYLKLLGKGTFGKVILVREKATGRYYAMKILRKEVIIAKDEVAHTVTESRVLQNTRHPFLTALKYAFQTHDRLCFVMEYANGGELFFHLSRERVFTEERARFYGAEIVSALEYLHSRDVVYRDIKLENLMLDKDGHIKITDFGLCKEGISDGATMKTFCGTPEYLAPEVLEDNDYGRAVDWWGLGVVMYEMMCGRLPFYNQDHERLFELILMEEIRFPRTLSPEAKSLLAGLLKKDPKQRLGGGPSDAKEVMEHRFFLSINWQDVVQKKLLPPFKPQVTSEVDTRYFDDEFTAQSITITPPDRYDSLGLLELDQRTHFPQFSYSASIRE
# Method: as §1
# TAO1 = TAO1 (Homo sapiens, UniProt Q7L7X3); assay: Kinase panel (140 human kinases); format: biochemical
# Sequence of TAO1 (Q7L7X3 whole entry): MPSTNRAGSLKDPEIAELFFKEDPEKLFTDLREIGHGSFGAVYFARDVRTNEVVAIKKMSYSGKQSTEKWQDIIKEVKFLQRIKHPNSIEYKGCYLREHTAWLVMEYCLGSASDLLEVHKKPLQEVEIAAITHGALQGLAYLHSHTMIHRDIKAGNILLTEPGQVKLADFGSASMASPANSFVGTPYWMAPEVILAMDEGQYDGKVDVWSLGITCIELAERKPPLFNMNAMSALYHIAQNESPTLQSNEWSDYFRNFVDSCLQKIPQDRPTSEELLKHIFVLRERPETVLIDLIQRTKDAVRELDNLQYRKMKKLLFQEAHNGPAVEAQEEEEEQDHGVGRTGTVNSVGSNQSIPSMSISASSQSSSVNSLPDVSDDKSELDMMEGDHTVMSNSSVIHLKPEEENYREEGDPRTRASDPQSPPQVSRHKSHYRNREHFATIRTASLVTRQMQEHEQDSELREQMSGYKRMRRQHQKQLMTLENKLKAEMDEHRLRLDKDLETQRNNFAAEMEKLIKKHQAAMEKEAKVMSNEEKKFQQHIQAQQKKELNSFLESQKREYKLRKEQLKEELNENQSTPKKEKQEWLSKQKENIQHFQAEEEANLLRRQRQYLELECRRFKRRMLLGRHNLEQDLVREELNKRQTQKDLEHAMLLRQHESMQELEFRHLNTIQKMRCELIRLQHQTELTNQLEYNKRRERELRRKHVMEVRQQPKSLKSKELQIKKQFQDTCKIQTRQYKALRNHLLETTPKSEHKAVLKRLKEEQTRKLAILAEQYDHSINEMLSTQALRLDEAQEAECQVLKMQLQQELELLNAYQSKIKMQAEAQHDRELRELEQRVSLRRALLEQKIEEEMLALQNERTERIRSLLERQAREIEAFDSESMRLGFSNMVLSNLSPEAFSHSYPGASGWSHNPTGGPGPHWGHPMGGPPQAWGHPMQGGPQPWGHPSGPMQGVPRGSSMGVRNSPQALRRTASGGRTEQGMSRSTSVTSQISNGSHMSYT
# Method: as §1
# ZAP70 = ZAP70 (Homo sapiens, UniProt P43403); assay: Kinase panel (140 human kinases); format: biochemical
# Sequence of ZAP70 (P43403 whole entry): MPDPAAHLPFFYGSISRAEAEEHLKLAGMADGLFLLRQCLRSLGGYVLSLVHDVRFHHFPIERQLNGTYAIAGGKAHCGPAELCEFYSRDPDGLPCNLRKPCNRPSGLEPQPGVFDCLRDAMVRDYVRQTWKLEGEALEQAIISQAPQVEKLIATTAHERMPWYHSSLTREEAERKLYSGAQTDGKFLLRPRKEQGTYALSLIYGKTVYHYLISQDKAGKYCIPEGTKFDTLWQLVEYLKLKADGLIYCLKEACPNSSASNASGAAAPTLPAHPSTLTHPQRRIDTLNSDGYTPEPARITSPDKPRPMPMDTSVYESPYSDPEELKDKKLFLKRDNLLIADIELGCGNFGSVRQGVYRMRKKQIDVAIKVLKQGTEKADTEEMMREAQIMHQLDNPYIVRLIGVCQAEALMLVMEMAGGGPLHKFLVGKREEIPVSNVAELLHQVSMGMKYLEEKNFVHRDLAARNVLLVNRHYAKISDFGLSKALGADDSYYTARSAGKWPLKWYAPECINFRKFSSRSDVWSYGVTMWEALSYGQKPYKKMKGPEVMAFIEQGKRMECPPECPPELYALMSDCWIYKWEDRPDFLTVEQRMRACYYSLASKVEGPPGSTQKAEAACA
# Method: as §1
# [1] = system: pSer79-ACC1 in U2OS cells; assay: HTRF assay of Ser79-ACC1 phosphorylation in U2OS cells; format: cell-based, human; conditions: for pIC50: Homo sapiens, U2OS
# Method: Human osteosarcoma U2OS WT cells were obtained from John Rouse (MRC Protein Phosphorylation and Ubiquitylation Unit, University of Dundee) and were cultured in DMEM high glucose + GlutaMAX Supplement, pyruvate (Thermo Fisher Scientific, catalog no. 31966-021) containing penicillin G (100 U/ml), streptomycin (100 μg/ml), and 10% (v/v) FBS seeding with 50,000 cells per well in a 50-μl volume in culture 96-well cell culture plates (Corning Incorporated costar, #3599). The next day, the media were changed to 50 μl of serum-free media, and 50 μl of serum-free media containing BAY-3827 or BAY-974 was dispensed and left to incubate at 37°C for 30 min. […] HTRF assays using either phospho-Ser^79-ACC1 kit (Revvity, #64ACCPEG) or phospho-Thr^172-AMPK kit (Revvity, #64AMPKPEG) were performed in triplicate in HTRF 96-well low volume white plates (Revvity, #66PL96001) following manufacturer’s instructions. Sealed plates incubated overnight in darkness conditions were scanned at room temperature in Multimode Plate Reader EnVision (PerkinElmer) machine following HTRF setup recommendations for EnVision (Revvity), equipped with a top mirror LANCE/DELFIA single mirror (#412), a UV2 (TRF) 320 excitation filter (#111), emission filter APC 665 (#205), and second emission filter Europium 615 (#203), with a 2000-μs cycle and 60-μs delay, with the number of flashes set to 100 as well as for the 2nd detector. Results were viewed in EnVision Manager software (version 1.13.3009.1401) where 665/615 ratios were calculated, and data were normalized to control condition as %. All assay ratios between control lysate signal/nonspecific signal were greater than 2 as expected of a successful assay following the manufacturer’s instructions. Data were visualized in GraphPad Prism v10.
# Sequence of Aurora B (Q96GD4 whole entry): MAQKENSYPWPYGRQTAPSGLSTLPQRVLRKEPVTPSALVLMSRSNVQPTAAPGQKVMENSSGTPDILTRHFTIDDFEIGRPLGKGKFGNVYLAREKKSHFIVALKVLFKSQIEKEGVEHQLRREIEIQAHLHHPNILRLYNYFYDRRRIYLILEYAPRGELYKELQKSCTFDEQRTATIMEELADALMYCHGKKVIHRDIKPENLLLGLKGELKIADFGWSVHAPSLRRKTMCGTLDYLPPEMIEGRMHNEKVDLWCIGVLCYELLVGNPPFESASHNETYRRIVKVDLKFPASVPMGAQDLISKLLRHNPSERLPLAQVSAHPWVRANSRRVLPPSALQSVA
Compound,remaining activity at 0.1 µM (Aurora B),remaining activity at 0.1 µM (CK1γ2),remaining activity at 0.1 µM (CK2),remaining activity at 0.1 µM (DYRK1A),remaining activity at 0.1 µM (ERK8),remaining activity at 0.1 µM (HIPK3),remaining activity at 0.1 µM (LKB1),remaining activity at 0.1 µM (MARK4),remaining activity at 0.1 µM (MKK2),remaining activity at 0.1 µM (MPSK1),remaining activity at 0.1 µM (NUAK1),remaining activity at 0.1 µM (PDK1),remaining activity at 0.1 µM (PINK),remaining activity at 0.1 µM (PKBb),remaining activity at 0.1 µM (TAO1),remaining activity at 0.1 µM (ZAP70),further results
"CCc1ccccc1C(=O)Nc1n[nH]c2c(C)c(F)c(C3C(C#N)=C(C)N(C)C(C)=C3C#N)cc12 [BAY-3827, N-[5-(3,5-dicyano-1,2,6-trimethyl-4H-pyridin-4-yl)-6-fluoro-7-methyl-1H-indazol-3-yl]-2-ethylbenzamide]",≤ 50%,95%,85%,96%,66%,77%,97%,98%,97%,135%,68%,83%,90%,93%,94%,96%,"inhibition at 0.1 µM (Aurora B): ~60%; remaining activity at 1 µM (NUAK1; 1 μM, cross-referenced with screen data of ref 37, read-out: activity remaining after treatment): ≤ 50%; inhibition of kinase (PHK): 80 to 85%; pIC50 ([1]; + MK-8722 (10 μM)): 5.20; pIC50 ([1]; without MK-8722): 6.03"
"CC1=C(C#N)C(c2ccc3c(c2)c(NC(=O)c2ccccc2C)nn3C)C(C#N)=C(C)N1 [BAY-974, N-[5-(3,5-dicyano-2,6-dimethyl-1,4-dihydropyridin-4-yl)-1-methylindazol-3-yl]-2-methylbenzamide]",62%,112%,79%,101%,91%,99%,104%,96%,95%,105%,60%,85%,95%,99%,88%,94%,Kinase activity remaining (%) (PHK): 120%; inhibition of ACC1 phosphorylation ([1]; up to highest tested concentration of 100 μM): No inhibition
